From ChEMBL document CHEMBL1140841, “Synthesis and biological evaluation of trimethyl-substituted cap analogs” (Bioorg Med Chem Lett, 2008)
Activity calls are given as the source filed them. The rule behind the calls is not given here.

Columns and labels:
[1] = mRNA capping efficiency after 2 hrs by gel shift assay relative to control
Escherichia phage T7 = assay: Effect on Enterobacteria phage T7 RNA polymerase RNA transcription after 2 hrs
HeLa = assay: Translation efficiency in human HeLa cells assessed as luciferase activity; assay type: functional, cell-based

**Q.** With `C[n+]1cn([C@H]2O[C@@H](COP(=O)([O-])OP(=O)(O)OP(=O)(O)OC[C@H]3O[C@@H](n4cnc5c(=O)[nH]c(N)nc54)[C@H](O)[C@@H]3O)[C@H](O)[C@@H]2O)c2nc(N)[nH]c(=O)c21` as the molecule, how does the Activity [1] read?
**A.** 61%

**Q.** What does the source list for `CO[C@@H]1[C@H](O)[C@@H](n2c[n+](C)c3c(=O)[nH]c(N)nc32)O[C@H]1COP(=O)([O-])OP(=O)(O)OP(=O)(O)OC[C@H]1O[C@@H](n2cnc3c(=O)[nH]c(N)nc32)[C@H](O)[C@@H]1O`?
**A.** Activity (Escherichia phage T7): Active; Activity (HeLa): Active; Activity [1]: 52%

**Q.** Which results are given for `C[n+]1cn([C@@H]2O[C@H](COP(=O)(O)OP(=O)([O-])OP(=O)([O-])OC[C@@H]3O[C@H](n4c[n+](C)c5c(=O)[nH]c(N)nc54)[C@@H](O)[C@H]3O)[C@@H](O)[C@H]2O)c2nc(N)[nH]c(=O)c21`?
**A.** Activity (Escherichia phage T7): Active; Activity (HeLa): Active; Activity [1]: 56%

**Q.** For `CO[C@@H]1[C@H](O)[C@@H](n2c[n+](C)c3c(=O)[nH]c(N)nc32)O[C@H]1COP(=O)([O-])OP(=O)(O)OP(=O)([O-])OC[C@H]1O[C@@H](n2c[n+](C)c3c(=O)[nH]c(N)nc32)[C@H](O)[C@@H]1O`, which Activity (Escherichia phage T7) is on record?
**A.** Active

**Q.** And the Activity (HeLa)?
**A.** Active

**Q.** And the Activity [1]?
**A.** 51%
